Experimental data: article PMC8621570, “Mechanistic Studies of Antibiotic Adjuvants Reducing Kidney’s Bacterial Loads upon Systemic Monotherapy” (Pharmaceutics, 2021)

Tests used:
Assay type in all cases: in vivo, mouse
[1] = Blood circulating concentrations (preliminary PK); details: ICR mice, single S.C 12.5 mg/kg, LC-MS
Experimental: C14(ω5)OOc10O was subjected to preliminary pharmacokinetics (PK) analysis to determine its plasma concentrations or organ bio-distribution following S.C administration to non-neutropenic pathogen-free mice. OAC quantification was performed by LC-MS as follows: blood was drawn at various time intervals and plasma was separated by centrifugation (5000 RCF, 10 min). Organs were excised and homogenized. Then, OAC was extracted from both plasma and organ homogenates by incubation with 50% acetonitrile: 50% methanol at room temperature with shaking for 30 min, and subsequent centrifugation (5000 RCF, 10 min). Supernatants were diluted two-fold in distilled water and analyzed by LC-MS (ULC ultimate 3000 DIONEX, MS BRUKER Maxis impact). Quantification was based on standard calibration curves, prepared by spiking fresh mice plasma (for PK) or water (for organ bio-distribution) with various amounts of the tested OAC (final concentrations from 2.5 to 50 µg/mL) and subjected to an identical procedure as described above.
Figure 10 Systemic efficacy studies using mouse infection models. (a,b) Data points represent colony forming unit (CFU) counts harvested from infected mice (8 and 10 mice per group, respectively). Panel (a) depicts results of the thigh infection model where mice were inoculated intramuscularly with E. coli 25922 (upper dashed line represents the inoculum) and treated subcutaneously with C14(ω5)OOc10O (12.5 mg/kg) at 1 and 3 h post-infection. Panel (b) depicts results of the urinary tract infection model where mice were infected with E. coli UPEC CFT073 by intra-urethral injection and treated subcutaneously with C14(ω5)OOc10O (12.5 mg/kg) at 1 and 6 h post-infection. Solid circles denote mice that died before the experimental endpoint. […] Panels (c,d) show the evolution of C14(ω5)OOc10O concentrations in mouse plasma (c) or in organs (d) after single subcutaneous administration (12.5 mg/kg) to ICR mice (data in c are from two mice/time points except for 60 and 180 that were 8 and 3, respectively) as determined by liquid chromatography–mass spectrometry. […]

[2] = tested on: P. aeruginosa 27853; assay: Excisional skin wound infection model, topical treatment; details: 4 h treatment, mice n = 3 per group
Experimental: (§1) Animals: All animal studies were performed using male ICR mice (25 ± 2 gr). The Technion Animal Care and Use committee approved all procedures, care, and handling of animals. Ethics approval codes: IL0800519, IL0640421, IL0550618, IL1811217.
(§2) For efficacy assessments, three infection models were used including one with topical treatment and two with systemic treatment. • Excisional skin wound infection model: mice were anesthetized by intraperitoneal administration of a mixture of ketamine 100 mg/kg and xylazine 5 mg/kg in PBS and their backs shaved with electric clippers. The following day mice were similarly anesthetized and were administrated (S.C) 0.05 mg/kg buprenorphine (for pain relief). A 5 mm diameter piece of skin was removed from the middle of the shaved back, with sterile biopsy punch resulting in a full-thickness injury. A total of 20 µL of a mid-logarithmic culture, containing 5 × 10^6 CFU P. aeruginosa 27853 were applied on the wound. Then, 15 min after inoculation, about 50 µL of hypromellose gel (prepared as described) containing OAC, antibiotic, or their combination were applied on the skin and covered with a piece of medical tape. As a control, the vehicle (drug-free gel) was similarly applied on the skin. After a treatment period of 4 h, about 8 mm diameter of skin surrounding the infected area was removed, suspended in PBS, homogenized, serially diluted 10-fold, and plated for CFU enumeration. The number of viable bacteria was determined after overnight incubation at 37 °C. The lower limit of detection was 50 CFU/wound. • Thigh infection model (TI): mice were inoculated intramuscularly with 1 × 10^6 CFU/mouse of mid-logarithmic E. coli 25922 and treated subcutaneously 1 and 3 h after inoculation. Mice were sacrificed 24 h after infection, their thighs excised, homogenized, serially diluted 10-fold, and plated for CFU enumeration. The number of viable bacteria was determined after overnight incubation at 37 °C. […] The number of viable bacteria was determined after overnight incubation at 37 °C. […]

[3] = tested on: E. coli UPEC CFT073; assay: Urinary tract infection model
Experimental: as §1, §2

## CCCCC=CCCCCCCCC(=O)N[C@@H](CCCN)C(=O)N[C@@H](CCCN)C(=O)NCCCCCCCCCC(=O)N[C@@H](CCCN)C(N)=O [C14(ω5)OOc10O]
[1]
  Time for which potentiating plasma concentrations (>2.5 µM) were maintained after the maximum: at least 3 h
[1]; mouse, plasma, sc, mean ± SD, read-out: Maximal plasma concentration
  Cmax: 8.7 ± 2.3 µM
[1]; mouse, plasma, sc, read-out: Time to maximal plasma concentration
  Tmax: ~1 h
[2]; hypromellose gel 0.2% (w/v)
  Reduction of CFU count: 0.5 log10 units
[2]; hypromellose gel 1% (w/v)
  Reduction of CFU count: 1.9 log10 units
[3]; 12.5 mg/kg S.C at 1 and 6 h post-infection, CFU at 24 h
  Effect on bladder CFU counts: not those of the bladder
[3]; 12.5 mg/kg S.C at 1 and 6 h post-infection, CFU at 24 h, 10 mice per group, dead control mice not included
  Reduction of kidneys' CFU counts: > 2 orders of magnitude
[3]; as above, if the two dead PBS-treated control mice were taken into consideration
  Gap of kidneys' CFU counts with the treated group: four
